Results from patent US20120095036A1, “NOVEL SUBSTITUTED INDAZOLE AND AZA-INDAZOLE DERIVATIVES AS GAMMA SECRETASE MODULATORS” (priority 2009, published 2012).
pIC50: −log10 of the molar value.

Tests used:
Assay type in all cases: cell-based
[1] = test system: Aβtotal; assay: Method 2: Aβtotal Alphalisa on supernatant of SKNBE2 cells carrying APP 695 wild type; conditions: SKNBE2 cells APP 695 wild type, overnight
Procedure: (§1) Screening was carried out using SKNBE2 cells carrying the APP 695—wild type, grown in Dulbecco's Modified Eagle's Medium/Nutrient mixture F-12 (DMEM/NUT-mix F-12) (HAM) provided by Invitrogen (cat no. 10371-029) containing 5% Serum/Fe supplemented with 1% non-essential amino acids, 1-glutamine 2 mM, Hepes 15 mM, penicillin 50 U/ml (units/ml) en streptomycin 50 μg/ml. Cells were grown to near confluency.
(§2) The screening was performed using a modification of the assay as described in Citron et al (1997) Nature Medicine 3: 67. Briefly, cells were plated in a 384-well plate at 10^4 cells/well in Ultraculture (Lonza, BE12-725F) supplemented with 1% glutamine (Invitrogen, 25030-024), 1% non-essential amino acid (NEAA), penicillin 50 U/ml en streptomycin 50 μg/ml in the presence of test compound at different test concentrations. The cell/compound mixture was incubated overnight at 37° C., 5% CO2, The next day the media were assayed by two sandwich immuno-assays, for Aβ42 and Aβtotal.
(§3) Aβtotal and Aβ42 concentrations were quantified in the cell supernatant using the Aphalisa technology (Perkin Elmer). Alphalisa is a sandwich assay using biotinylated antibody attached to streptavidin coated donorbeads and antibody conjugated to acceptor beads. In the presence of antigen, the beads come into close proximity. The excitation of the donor beads provokes the release of singlet oxygen molecules that trigger a cascade of energy transfer in the acceptor beads, resulting in light emission. To quantify the amount of Aβ42 in the cell supernatant, monoclonal antibody specific to the C-terminus of Aβ42 (JRF/cAβ42/26) was coupled to the receptor beads and biotinylated antibody specific to the N-terminus of AB (JRF/AβN/25) was used to react with the donor beads. To quantify the amount of Aβtotal in the cell supernatant, monoclonal antibody specific to the N-terminus of AB (JRF/AβN/25) was coupled to the receptor beads and biotinylated antibody specific to the mid region of Aβ (biotinylated 4G8) was used to react with the donor beads.
(§4) To obtain the values reported in Table 3b, the data were calculated as percentage of the maximum amount of amyloid Beta 42 measured in the absence of the test compound. The sigmoidal dose response curves were analyzed using non-linear regression analysis with percentage of the control plotted against the log concentration of the compound. A 4-parameter equation was used to determine the IC50.

[2] = test system: Aβ42; assay: Method 2: Aβ42 Alphalisa on supernatant of SKNBE2 cells carrying APP 695 wild type; conditions: SKNBE2 cells APP 695 wild type, overnight
Procedure: as §1, §2, §3, §4

[3] = test system: Aβ42; assay: Method 1: Aβ42 sandwich ELISA on media of SKNBE2 cells carrying APP 695 wild type (γ-secretase-modulating activity); conditions: Homo sapiens, SKNBE2 cells APP 695 wild type, 18 hours
Procedure: as §1, with “Gibco” for “Invitrogen”, “31330-38)” for “10371-029)”, “acids.” for “acids, 1-glutamine 2 mM, Hepes 15 mM, penicillin 50 U/ml (units/ml) en streptomycin 50 μg/ml.”
(§5) The screening was performed using the assay as described in Citron et al (1997) Nature Medicine 3: 67. Briefly, cells were plated in a 96-well plate at about 10^5 cells/ml one day prior to addition of compounds. Compounds were added to the cells in Ultraculture (Lonza, BE12-725F) supplemented with 1% glutamine (Invitrogen, 25030-024) for 18 hours. The media were assayed by two sandwich ELISAs, for Aβ42 and Aβtotal. Toxicity of the compounds was assayed by WST-1 cell proliferation reagent (Roche, 1 644 807) according to the manufacturer's protocol.
To quantify the amount of Aβ42 in the cell supernatant, commercially available Enzyme-Linked-Immunosorbent-Assay (ELISA) kits were used (Innotest® β-Amyloid(1-42), Innogenetics N.V., Ghent, Belgium). The Aβ42 ELISA was performed essentially according to the manufacturer's protocol. Briefly, the standards (dilutions of synthetic A131-42) were prepared in polypropylene Eppendorf with final concentrations of 8000 down to […] (½ dilution step). Samples, standards and blanks (100 μl) were added to the anti-Aβ42-coated plate supplied with the kit (the capture antibody selectively recognizes the C-terminal end of the antigen). The plate was allowed to incubate 3 h at 25° C. in order to allow formation of the antibody-amyloid complex. Following this incubation and subsequent wash steps a selective anti-A13-antibody conjugate (biotinylated 3D6) was added and incubated for a minimum of 1 hour in order to allow formation of the antibody-Amyloid-antibody-complex. After incubation and appropriate wash steps, a Streptavidine-Peroxidase-Conjugate was added, followed 30 minutes later by an addition of 3,3′,5,5′-tetramethylbenzidine (TMB)/peroxide mixture, resulting in the conversion of the substrate into a coloured product. This reaction was stopped by the addition of sulfuric acid (0.9 N) and the colour intensity was measured by means of photometry with an ELISA-reader with a 450 nm filter.
(§6) To obtain the values reported in Table 3a, the sigmoidal dose response curves were analysed by computerised curve-fitting, with percent of inhibition plotted against compound concentration. A 4-parameter equation (model 205) in XLfit was used to determine the IC50. The top and the bottom of the curve were fixed to 100 and 0, respectively, and the hill slope was fixed to 1. The IC50 represents the concentration of a compound that is required for inhibiting a biological effect by 50% (Here, it is the concentration where Aβ peptide level is reduced by 50%).

[4] = test system: Aβtotal; assay: Method 1: Aβtotal sandwich ELISA on media of SKNBE2 cells carrying APP 695 wild type; conditions: Homo sapiens, SKNBE2 cells APP 695 wild type, 18 hours
Procedure: as §1, with “Gibco” for “Invitrogen”, “31330-38)” for “10371-029)”, “acids.” for “acids, 1-glutamine 2 mM, Hepes 15 mM, penicillin 50 U/ml (units/ml) en streptomycin 50 μg/ml.”
as §5
To quantify the amount of Aβtotal in the cell supernatant, samples and standards were added to a 6E10-coated plate. The plate was allowed to incubate overnight at 4° C. in order to allow formation of the antibody-amyloid complex. Following this incubation and subsequent wash steps a selective anti-AB-antibody conjugate (biotinylated 4G8) was added and incubated for a minimum of 1 hour in order to allow formation of the antibody-Amyloid-antibody-complex. After incubation and appropriate wash steps, a Streptavidine-Peroxidase-Conjugate was added, followed 30 minutes later by an addition of Quanta Blu fluorogenic peroxidase substrate according to the manufacturer's instructions (Pierce Corp., Rockford, Il).
as §6

pIC50 [1] | pIC50 [2] | pIC50 ([1]; Homo sapiens) | pIC50 [3] | pIC50 ([2]; Homo sapiens) | pIC50 [4] | Compound
< 5.00 | 6.20 | – | – | – | – | COc1cccc(-n2nc3c(Nc4ccc(-c5ccnn5C)cc4)cccc3c2C)c1 [Compound 53, 2-(3-methoxyphenyl)-3-methyl-N-[4-(1-methyl-1H-pyrazol-5-yl)phenyl]-2H-indazol-7-amine .2HCl .0.5H2O]
– | – | < 5.00 | 6.32 | 6.48 | < 5.52 | COc1cc(Nc2cccc3cn(CC(F)(F)F)nc23)ccc1-n1cnc(C)n1 [Compound 18, N-[3-methoxy-4-(3-methyl-1H-1,2,4-triazol-1-yl)phenyl]-2-(2,2,2-trifluoroethyl)-2H-indazol-7-amine]
– | < 5.52 | – | – | – | – | COCCn1cc2cccc(Nc3ccc(-c4ocnc4C)c(OC)c3)c2n1 [Compound 36, 2-(2-methoxyethyl)-N-[3-methoxy-4-(4-methyl-5-oxazolyl)phenyl]-2H-indazol-7-amine .1.5HCl .0.18H2O]
– | – | 5.09 | 7.51 | 7.74 | < 5.52 | COc1cccc(-n2nc3c(Nc4ccc(-n5cnc(C)n5)c(OC)c4)cccc3c2C)c1 [Compound 5, N-[3-methoxy-4-(3-methyl-1H-1,2,4-triazol-1-yl)phenyl]-2-(3-methoxyphenyl)-3-methyl-2H-indazol-7-amine .1.9HCl]
– | – | < 5.52 | 5.83 | > 5.52 | < 5.00 | COc1cc(Nc2cccc3cn(C)nc23)ccc1-n1cnc(C)c1 [Compound 9, N-[3-methoxy-4-(4-methyl-1H-imidazol-1-yl)phenyl]-2-methyl-2H-indazol-7-amine]
– | – | 5.07 | 6.72 | 7.27 | < 5.52 | COc1cc(Nc2cccc3c(C)n(-c4ccc(F)cc4F)nc23)ccc1-n1cnc(C)c1 [Compound 16, 2-(2,4-difluorophenyl)-N-[3-methoxy-4-(4-methyl-1H-imidazol-1-yl)phenyl]-3-methyl-2H-indazol-7-amine]
< 5.52 | < 5.52 | – | – | – | – | Cc1ncc(-c2ccc(Nc3cccc4cn(C5CCC5)nc34)cc2)o1 [Compound 26, 2-cyclobutyl-N-[4-(2-methyl-5-oxazolyl)phenyl]-2H-indazol-7-amine .1.2HCl]
– | – | < 5.00 | – | 6.22 | – | Cc1cn(-c2ccc(Nc3cncc4cn(CC(F)(F)F)nc34)cc2F)cn1 [Compound 55, N-[3-fluoro-4-(4-methyl-1H-imidazol-1-yl)phenyl]-2-(2,2,2-trifluoroethyl)-2H-pyrazolo[4,3-c]pyridin-7-amine]
– | – | < 5.00 | 6.06 | 6.17 | – | COc1cc(Nc2cccc3c(C)n(-c4ccc(F)cc4F)nc23)ccc1-c1cnc(C)s1 [Compound 50, 2-(2,4-difluorophenyl)-N-[3-methoxy-4-(2-methyl-5-thiazolyl)phenyl]-3-methyl-2H-indazol-7-amine]
– | – | 5.32 | 7.26 | 7.66 | < 5.52 | COc1cccc(-n2nc3c(Nc4ccc(-c5ocnc5C)nc4)cccc3c2C)c1 [Compound 4, 2-(3-methoxyphenyl)-3-methyl-N-[6-(4-methyl-5-oxazolyl)-3-pyridinyl]-2H-indazol-7-amine]
– | – | < 5.00 | – | 6.15 | – | COc1cc(Nc2cc(C(C)C)nc3cn(CC(F)(F)F)nc23)ccc1-n1cnc(C)n1 [Compound 56, N-[3-methoxy-4-(3-methyl-1H-1,2,4-triazol-1-yl)phenyl]-5-(1-methylethyl)-2-(2,2,2-trifluoroethyl)-2H-pyrazolo[4,3-b]pyridin-7-amine]
– | – | < 5.52 | 6.95 | > 5.52 | < 5.52 | CCCCn1cc2cccc(Nc3ccc(-n4cnc(C)c4)c(OC)c3)c2n1 [Compound 3, 2-butyl-N-[3-methoxy-4-(4-methyl-1H-imidazol-1-yl)phenyl]-2H-indazol-7-amine .2HCl]
– | – | 5.52 | 6.90 | 6.91 | < 5.52 | COc1cccc(-n2cc3cccc(Nc4ccc(-n5cnc(C)n5)c(OC)c4)c3n2)c1 [Compound 19, N-[3-methoxy-4-(3-methyl-1H-1,2,4-triazol-1-yl)phenyl]-2-(3-methoxyphenyl)-2H-indazol-7-amine]
– | – | < 5.52 | – | < 5.52 | – | COc1cc(Nc2cccc3cn(C)nc23)ccc1-n1cnc(C)n1 [Compound 17, N-[3-methoxy-4-(3-methyl-1H-1,2,4-triazol-1-yl)phenyl]-2-methyl-2H-indazol-7-amine]
– | 5.85 | – | – | – | – | Cc1ncc(-c2ccc(Nc3cccc4cn(CC5CC5)nc34)cn2)o1 [Compound 43, 2-(cyclopropylmethyl)-N-[6-(2-methyl-5-oxazolyl)-3-pyridinyl]-2H-indazol-7-amine .2HCl]
– | < 5.52 | – | – | – | – | CCCCn1cc2cc(CN)cc(Nc3ccc(-n4cnc(C)c4)c(OC)c3)c2n1 [Compound 12, 2-butyl-7-[[3-methoxy-4-(4-methyl-1H-imidazol-1-yl)phenyl]amino]-2H-indazole-5-methanamine .4HCl]
– | – | 5.15 | 7.54 | 7.70 | – | CCOc1cc(C)c(-n2nc3c(Nc4ccc(-n5cnc(C)c5)c(OC)c4)cccc3c2C)cc1C(C)C [Compound 14, 2-[4-ethoxy-2-methyl-5-(1-methylethyl)phenyl]-N-[3-methoxy-4-(4-methyl-1H-imidazol-1-yl)phenyl]-3-methyl-2H-indazol-7-amine]
– | < 5.52 | – | – | – | – | COCCn1cc2cccc(Nc3ccc(-c4cnc(C)o4)cc3)c2n1 [Compound 27, 2-(2-methoxyethyl)-N-[4-(2-methyl-5-oxazolyl)phenyl]-2H-indazol-7-amine .1.5HCl .1.25H2O]
– | – | < 5.52 | – | < 5.52 | – | COc1cc(Nc2cccc3cn(C)nc23)ccc1-c1cnc(C)s1 [Compound 49, N-[3-methoxy-4-(2-methyl-5-thiazolyl)phenyl]-2-methyl-2H-indazol-7-amine]
– | – | 5.16 | – | 7.46 | – | Cc1ncc(-c2ccc(Nc3cc(F)cc4c(C)n(-c5ccc(F)cc5)nc34)cn2)o1 [Compound 47, 5-fluoro-2-(4-fluorophenyl)-3-methyl-N-[6-(2-methyl-5-oxazolyl)-3-pyridinyl]-2H-indazol-7-amine]
